Results reported in patent publication US20090060875A1, “HCV Vaccines for Chronic HCV Patients” (INTERCELL AG, priority 2004, published 2009).

How the values were obtained:
[1] = standard therapy, background; cited from earlier work
CD4+ Helper-T-cells = assay: T-cell proliferation assay ([3H]-thymidine) in phase 2 study of chronic HCV patients; assay type: in vivo, human; details: vaccinations at month 0-5, stimulation indices, median of 12 patients per group (FIG. 1), listed as poly-L-Arginine alone
Excerpt: (§1) In the present clinical study, each group consisted of 12 subjects, positive for HLA-A2. Subjects received 6 vaccinations in monthly intervals (at visits 3 to 8). Blood for immunological analyses was drawn prior vaccination and at visits 6 to 8, one month after last vaccination (visit 9), 3 months after last vaccination (visit 10) and 6 months after last vaccination (visit 11). For immunological monitoring of clinical trials, state-of-the-art T cell assays to determine immunological endpoints under GLP/GCP compliance were applied: Interferon-gamma ELIspot Assay, T cell Proliferation Assay, HLA-tetramer/FACS assay. These assays allow reliable measurements of epitope-specific T cell responses induced by the therapeutic HCV vaccine IC41. The vaccine-induced T cell immune responses serve as surrogate parameters of efficacy (Keilholz et al. 2002).
As primary endpoint T-cell immunogenicity was determined by a T-cell proliferation assay. […] Proliferation of cells can be measured by a variety of means; among the most sensitive approaches ranks incorporation of radioactively labeled thymidine into DNA synthesized prior cell division. […] Cells are then harvested onto a filter plate: medium containing free radioactivity is washed away, whereas DNA sticks to the filter. Incorporated radioactivity can be quantified by means of a beta-scintillation counter determining counts-per-minute (cpm). […]

[2] = system: interferon gamma secreting T-cells (CD4+ Helper- and CD8+ cytotoxic T-cells); assay: Interferon-gamma ELIspot assay in phase 2 study of chronic HCV patients; assay type: in vivo, human; details: chronic HCV patients (FIG. 2)
Excerpt: as §1
As secondary endpoints T-cell immunogenicity was determined by interferon gamma ELIspot. ELIspot allows quantification of peptide-specific, functional (i.e. cytokine-secreting) T cells in biological samples like human blood. The basis of the assay is that, T cells upon stimulation with a peptide specifically recognized by the T cell receptor react by secretion of cytokines like IFN-γ. […]
The filter-wells of this plate are coated with a Mab specific for IFN-γ. […] Spots can be counted using automated plate readers. […]

Row | Compound | Side effects [1] | CD4+ Helper-T-cell proliferation (induction of significant proliferative response) (CD4+ Helper-T-cells) | Induction of interferon gamma secreting T-cells (type I T-cell response) [2]
1 | NC(=O)c1ncn([C@@H]2O[C@H](CO)[C@@H](O)[C@H]2O)n1 [Ribavirin, ribavirin] | teratogenic, mutagenic and carcinogenic potency | – | –
2 | Poly-L-Arginine | – | not and neither peptides alone nor poly-L-Arginine alone have this ability | cannot induce any response
